From PubChem BioAssay AID248 (DTP/NCI, 2004)
Values joined by “and” are separate entries in the source; they are usually repeats but may differ in a detail not shown here. Identical values can stand only once. Inconclusive results and toxic doses are left out. Rule as the data show it: active = T/C of 150% or more; inactive = T/C below 125%.

System: L1210 leukemia ip in BDF1 mice, survival T/C
Assay: NCI In Vivo Anticancer Drug Screen. Data for tumor model L1210 Leukemia (intraperitoneal) in B6D2F1 (BDF1) mice
Settings: endpoint: mean survival time, higher = longer survival
Method in brief: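 Read-out is survival time, reported as the treated-group measurement over the vehicle-control measurement.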

Measured: T/C

CN(C)c1ccc(Nc2c3ccccc3nc3ccccc23)cc1
inactive: dose: 3.13 mg/kg/injection, schedule: Q03HX040 (ip), vehicle: saline 106 % of control | dose: 3.75 mg/kg/injection, schedule: Q01DX Z (ip), vehicle: saline 107 % of control | dose: 3.75 mg/kg/injection, schedule: Q01DX Z (oral), vehicle: olive oil, sesame oil, peanut oil 116 % of control | dose: 5.0 mg/kg/injection, schedule: Q01DX005 (ip), vehicle: saline 107 % of control | dose: 5.0 mg/kg/injection, schedule: Q01DX009 (ip), vehicle: saline 107 % of control | dose: 5.0 mg/kg/injection, schedule: Q01DX009 (sc), vehicle: saline 101 % of control | dose: 6.12 mg/kg/injection, schedule: Q03HX008 (ip), vehicle: saline 107 % of control | dose: 6.25 mg/kg/injection, schedule: Q03HX008 (ip), vehicle: saline 104 % of control | dose: 6.25 mg/kg/injection, schedule: Q03HX016 (ip), vehicle: saline 103 % of control | dose: 7.0 mg/kg/injection, schedule: Q01DX Z (sc), vehicle: steriod suspending solution 104 % of control | dose: 7.5 mg/kg/injection, schedule: Q01DX Z (ip), vehicle: saline 110 % of control | dose: 10.0 mg/kg/injection, schedule: Q01DX005 (ip), vehicle: saline 108 % of control | dose: 10.0 mg/kg/injection, schedule: Q01DX009 (ip), vehicle: saline 117 % of control | dose: 10.0 mg/kg/injection, schedule: Q01DX009 (oral), vehicle: saline 118 % of control | dose: 10.0 mg/kg/injection, schedule: Q01DX009 (sc), vehicle: saline 102 % of control | dose: 10.0 mg/kg/injection, schedule: Q01DX Z (sc), vehicle: steriod suspending solution 115 % of control | dose: 12.5 mg/kg/injection, schedule: Q01DX Z (im), vehicle: saline 108 % of control | dose: 12.5 mg/kg/injection, schedule: Q04DX003 (ip), vehicle: saline 104 % of control | dose: 12.5 mg/kg/injection, schedule: Q06HX004 (ip), vehicle: saline 115 % of control | dose: 12.5 mg/kg/injection, schedule: Q#A X Z (oral), vehicle: saline 112 % of control | dose: 15.0 mg/kg/injection, schedule: Q01DX Z (oral), vehicle: olive oil, sesame oil, peanut oil 115 % of control | dose: 15.0 mg/kg/injection, schedule: Q01DX Z (sc), vehicle: steriod suspending solution 107 % of control | dose: 16.0 mg/kg/injection, schedule: Q01DX Z (ip), vehicle: carboxymethylcellulose (CMC) 112 % of control | dose: 17.5 mg/kg/injection, schedule: Q#A X Z (ip), vehicle: saline 116 % of control | dose: 19.0 mg/kg/injection, schedule: Q03DX006 (oral), vehicle: saline 112 % of control | dose: 20.0 mg/kg/injection, schedule: Q01DX009 (oral), vehicle: saline 101 % of control | dose: 20.0 mg/kg/injection, schedule: Q01DX009 (sc), vehicle: saline 100 % of control | dose: 22.5 mg/kg/injection, schedule: Q01DX009 (ip), vehicle: saline 120 % of control | dose: 23.0 mg/kg/injection, schedule: Q01DX Z (sc), vehicle: steriod suspending solution 115 % of control and 119 % of control | dose: 24.0 mg/kg/injection, schedule: Q01DX Z (ip), vehicle: carboxymethylcellulose (CMC) 120 % of control | dose: 24.0 mg/kg/injection, schedule: Q01DX Z (ip), vehicle: saline 111 % of control | dose: 25.0 mg/kg/injection, schedule: Q01DX001 (oral), vehicle: saline 96 % of control | dose: 25.0 mg/kg/injection, schedule: Q01DX001 (sc), vehicle: saline 96 % of control | dose: 25.0 mg/kg/injection, schedule: Q01DX005 (ip), vehicle: Klucel (hydroxypropylcellulose) (HPC) 112 % of control | dose: 25.0 mg/kg/injection, schedule: Q01DX005 (ip), vehicle: other 108 % of control and 114 % of control | dose: 25.0 mg/kg/injection, schedule: Q01DX009 (ip), vehicle: saline 116 % of control | dose: 25.0 mg/kg/injection, schedule: Q01DX Z (im), vehicle: saline 108 % of control | dose: 25.0 mg/kg/injection, schedule: Q01DX Z (oral), vehicle: saline 120 % of control | dose: 27.0 mg/kg/injection, schedule: Q01DX Z (oral), vehicle: saline 115 % of control | dose: 30.0 mg/kg/injection, schedule: Q01DX Z (ip), vehicle: olive oil, sesame oil, peanut oil 116 % of control | dose: 30.0 mg/kg/injection, schedule: Q01DX Z (sc), vehicle: olive oil, sesame oil, peanut oil 114 % of control | dose: 30.0 mg/kg/injection, schedule: Q01DX Z (sc), vehicle: saline 114 % of control | dose: 35.0 mg/kg/injection, schedule: Q01DX Z (ip), vehicle: carboxymethylcellulose (CMC) 118 % of control | dose: 35.0 mg/kg/injection, schedule: Q01DX Z (ip), vehicle: saline 101 % of control and 111 % of control | dose: 35.0 mg/kg/injection, schedule: Q01DX Z (sc), vehicle: steriod suspending solution 113 % of control | dose: 37.0 mg/kg/injection, schedule: Q03DX006 (oral), vehicle: saline 118 % of control | dose: 40.0 mg/kg/injection, schedule: Q01DX009 (sc), vehicle: saline 105 % of control | dose: 50.0 mg/kg/injection, schedule: Q01DX001 (oral), vehicle: saline 105 % of control | dose: 50.0 mg/kg/injection, schedule: Q01DX001 (sc), vehicle: saline 97 % of control | dose: 50.0 mg/kg/injection, schedule: Q01DX005 (ip), vehicle: other 112 % of control | dose: 50.0 mg/kg/injection, schedule: Q01DX Z (im), vehicle: saline 116 % of control | dose: 50.0 mg/kg/injection, schedule: Q01DX Z (oral), vehicle: saline 117 % of control | dose: 50.0 mg/kg/injection, schedule: Q04DX003 (ip), vehicle: Klucel (hydroxypropylcellulose) (HPC) 111 % of control | dose: 50.0 mg/kg/injection, schedule: Q04DX003 (ip), vehicle: other 108 % of control and 119 % of control | dose: 50.0 mg/kg/injection, schedule: Q#A X Z (oral), vehicle: saline 118 % of control | dose: 53.0 mg/kg/injection, schedule: Q01DX Z (sc), vehicle: saline 113 % of control | dose: 53.0 mg/kg/injection, schedule: Q01DX Z (sc), vehicle: steriod suspending solution 115 % of control | dose: 53.3 mg/kg/injection, schedule: Q01DX Z (ip), vehicle: carboxymethylcellulose (CMC) 115 % of control | dose: 53.3 mg/kg/injection, schedule: Q01DX Z (ip), vehicle: methylcellulose (MC) 111 % of control | dose: 60.0 mg/kg/injection, schedule: Q01DX Z (oral), vehicle: olive oil, sesame oil, peanut oil 120 % of control | dose: 60.0 mg/kg/injection, schedule: Q01DX Z (sc), vehicle: olive oil, sesame oil, peanut oil 117 % of control | dose: 80.0 mg/kg/injection, schedule: Q01DX Z (ip), vehicle: methylcellulose (MC) 95 % of control | dose: 80.0 mg/kg/injection, schedule: Q01DX Z (sc), vehicle: saline 107 % of control | dose: 90.0 mg/kg/injection, schedule: Q01DX009 (ip), vehicle: saline 119 % of control | dose: 100.0 mg/kg/injection, schedule: Q01DX001 (oral), vehicle: saline 112 % of control | dose: 100.0 mg/kg/injection, schedule: Q01DX001 (sc), vehicle: saline 108 % of control | dose: 100.0 mg/kg/injection, schedule: Q01DX005 (ip), vehicle: other 100 % of control | dose: 100.0 mg/kg/injection, schedule: Q04DX003 (ip), vehicle: other 112 % of control | dose: 105.0 mg/kg/injection, schedule: Q01DX Z (ip), vehicle: saline 114 % of control | dose: 120.0 mg/kg/injection, schedule: Q01DX Z (oral), vehicle: olive oil, sesame oil, peanut oil 111 % of control | dose: 120.0 mg/kg/injection, schedule: Q01DX Z (sc), vehicle: saline 120 % of control | dose: 125.0 mg/kg/injection, schedule: Q01DX001 (ip), vehicle: Klucel (hydroxypropylcellulose) (HPC) 115 % of control | dose: 125.0 mg/kg/injection, schedule: Q01DX001 (ip), vehicle: saline 111 % of control | dose: 135.0 mg/kg/injection, schedule: Q#A X Z (ip), vehicle: saline 97 % of control | dose: 175.0 mg/kg/injection, schedule: Q01DX001 (oral), vehicle: saline 108 % of control and 121 % of control | dose: 175.0 mg/kg/injection, schedule: Q07DX003 (oral), vehicle: saline 117 % of control | dose: 180.0 mg/kg/injection, schedule: Q01DX Z (ip), vehicle: carboxymethylcellulose (CMC) 96 % of control and 108 % of control and 110 % of control | dose: 180.0 mg/kg/injection, schedule: Q01DX Z (sc), vehicle: saline 97 % of control | dose: 200.0 mg/kg/injection, schedule: Q01DX001 (oral), vehicle: saline 107 % of control | dose: 200.0 mg/kg/injection, schedule: Q01DX001 (sc), vehicle: saline 103 % of control | dose: 245.0 mg/kg/injection, schedule: Q01DX Z (ip), vehicle: saline 110 % of control | dose: 400.0 mg/kg/injection, schedule: Q01DX Z (im), vehicle: saline 93 % of control | dose: 405.0 mg/kg/injection, schedule: Q01DX Z (ip), vehicle: saline 100 % of control and 113 % of control | dose: 480.0 mg/kg/injection, schedule: Q01DX Z (sc), vehicle: saline 109 % of control | dose: 540.0 mg/kg/injection, schedule: Q01DX Z (ip), vehicle: saline 119 % of control | dose: 600.0 mg/kg/injection, schedule: Q03DX006 (oral), vehicle: saline 101 % of control | dose: 608.0 mg/kg/injection, schedule: Q01DX Z (ip), vehicle: saline 114 % of control | dose: 700.0 mg/kg/injection, schedule: Q01DX001 (oral), vehicle: saline 115 % of control | dose: 912.0 mg/kg/injection, schedule: Q01DX Z (ip), vehicle: saline 115 % of control | dose: 1000.0 mg/kg/injection, schedule: Q01DX001 (ip), vehicle: Klucel (hydroxypropylcellulose) (HPC) 109 % of control | dose: 1260.0 mg/kg/injection, schedule: Q01DX Z (ip), vehicle: saline 119 % of control | dose: 1400.0 mg/kg/injection, schedule: Q01DX001 (oral), vehicle: saline 109 % of control
